Test results reported in the supplement of paper PMC10307832.

Legend:
Assay in all cases: relative viability (nuclei count vs DMSO), 5 days (fraction); higher = more cells survive
BEN = test system: BEN
Outline: (§1)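 Lung cancer cell lines were seeded in 1536-well plates and dosed by pin tool the next day, with either a single drug or a fixed anchor-drug dose combined with five library-drug doses (not always all listed) spaced in √10 steps. Five days later, one step fixed the cells and stained their nuclei (final 0.05% Triton X-100, 1% formaldehyde, 1 ug/ml Hoechst), and nuclei were counted on 4× images. Relative viability is the nuclei count in treated wells divided by the count in vehicle wells, and each value is the median of duplicate plates.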

H3255 = test system: H3255
Outline: as §1

HCC-15 = test system: HCC-15
Outline: as §1

HCC-78 = test system: HCC-78
Outline: as §1

LC-2-ad = test system: LC-2-ad
Outline: as §1

LCLC-97TM1 = test system: LCLC-97TM1
Outline: as §1

LK-2 = test system: LK-2
Outline: as §1

LU99A = test system: LU99A
Outline: as §1

LXF-289 = test system: LXF-289
Outline: as §1

NCI-H1651 = test system: NCI-H1651
Outline: as §1

NCI-H1666 = test system: NCI-H1666
Outline: as §1

NCI-H1944 = test system: NCI-H1944
Outline: as §1

NCI-H2087 = test system: NCI-H2087
Outline: as §1

NCI-H322M = test system: NCI-H322M
Outline: as §1

NCI-H358 = test system: NCI-H358
Outline: as §1

NCI-H596 = test system: NCI-H596
Outline: as §1

NCI-H650 = test system: NCI-H650
Outline: as §1

NCI-H661 = test system: NCI-H661
Outline: as §1

NCI-H838 = test system: NCI-H838
Outline: as §1

PC-3 [JPC-3] = test system: PC-3 [JPC-3]
Outline: as §1

SK-MES-1 = test system: SK-MES-1
Outline: as §1

UMC-11 = test system: UMC-11
Outline: as §1

Clc1ccc(Nc2nnc(Cc3ccncc3)c3ccccc23)cc1 [Vatalanib] + CS(=O)(=O)CCNCc1ccc(-c2ccc3ncnc(Nc4ccc(OCc5cccc(F)c5)c(Cl)c4)c3c2)o1 [Lapatinib] (partner 2 µM) showed a relative viability (BEN; first compound 0.04 µM) of 0.79, a relative viability (BEN; first compound 0.1265 µM) of 0.554 and a relative viability (BEN; first compound 0.4 µM) of 0.806. The relative viability (BEN; first compound 1.265 µM) was 0.657, the relative viability (BEN; first compound 4 µM) was 0.767 and the relative viability (H3255; first compound 0.04 µM) was 0.261. For the same molecule, the relative viability (H3255; first compound 0.1265 µM) was 0.226, the relative viability (H3255; first compound 0.4 µM) was 0.287 and the relative viability (H3255; first compound 1.265 µM) was 0.247. For the same molecule, the relative viability (H3255; first compound 4 µM) was 0.263, the relative viability (HCC-15; first compound 0.04 µM) was 0.874 and the relative viability (HCC-15; first compound 0.1265 µM) was 0.699. It also gave a relative viability (HCC-15; first compound 0.4 µM) of 0.853, a relative viability (HCC-15; first compound 1.265 µM) of 0.825 and a relative viability (HCC-15; first compound 4 µM) of 0.837. The relative viability (HCC-78; first compound 0.04 µM) was 0.694, the relative viability (HCC-78; first compound 0.1265 µM) was 0.634 and the relative viability (HCC-78; first compound 0.4 µM) was 0.937. The relative viability (HCC-78; first compound 4 µM) was 0.478, the relative viability (LC-2-ad; first compound 0.04 µM) was 0.977 and the relative viability (LC-2-ad; first compound 0.1265 µM) was 0.865. It also gave a relative viability (LC-2-ad; first compound 0.4 µM) of 0.952, a relative viability (LC-2-ad; first compound 1.265 µM) of 0.936 and a relative viability (LC-2-ad; first compound 4 µM) of 0.901. It also gave a relative viability (LCLC-97TM1; first compound 0.04 µM) of 0.818, a relative viability (LCLC-97TM1; first compound 0.1265 µM) of 0.847 and a relative viability (LCLC-97TM1; first compound 0.4 µM) of 0.841. For the same molecule, the relative viability (LCLC-97TM1; first compound 1.265 µM) was 0.897, the relative viability (LCLC-97TM1; first compound 4 µM) was 0.971 and the relative viability (LK-2; first compound 0.04 µM) was 0.88. The relative viability (LK-2; first compound 0.1265 µM) was 0.831, the relative viability (LK-2; first compound 0.4 µM) was 0.698 and the relative viability (LK-2; first compound 1.265 µM) was 1.03. The relative viability (LK-2; first compound 4 µM) was 0.93, the relative viability (LU99A; first compound 0.04 µM) was 0.893 and the relative viability (LU99A; first compound 0.1265 µM) was 0.986. For the same molecule, the relative viability (LU99A; first compound 0.4 µM) was 1.16, the relative viability (LU99A; first compound 1.265 µM) was 0.831 and the relative viability (LU99A; first compound 4 µM) was 0.92. For the same molecule, the relative viability (LXF-289; first compound 0.04 µM) was 0.959, the relative viability (LXF-289; first compound 0.1265 µM) was 0.82 and the relative viability (LXF-289; first compound 0.4 µM) was 0.98. The relative viability (LXF-289; first compound 1.265 µM) was 0.891, the relative viability (LXF-289; first compound 4 µM) was 0.904 and the relative viability (NCI-H1651; first compound 0.04 µM) was 0.921. It also gave a relative viability (NCI-H1651; first compound 0.1265 µM) of 0.868, a relative viability (NCI-H1651; first compound 0.4 µM) of 0.947 and a relative viability (NCI-H1651; first compound 1.265 µM) of 0.899. It also gave a relative viability (NCI-H1651; first compound 4 µM) of 0.835, a relative viability (NCI-H1666; first compound 0.04 µM) of 0.728 and a relative viability (NCI-H1666; first compound 0.1265 µM) of 0.749. For the same molecule, the relative viability (NCI-H1666; first compound 0.4 µM) was 0.863, the relative viability (NCI-H1666; first compound 1.265 µM) was 0.529 and the relative viability (NCI-H1666; first compound 4 µM) was 0.545. For the same molecule, the relative viability (NCI-H1944; first compound 0.04 µM) was 0.904, the relative viability (NCI-H1944; first compound 0.1265 µM) was 0.635 and the relative viability (NCI-H1944; first compound 0.4 µM) was 0.909. The relative viability (NCI-H1944; first compound 1.265 µM) was 0.804, the relative viability (NCI-H1944; first compound 4 µM) was 0.784 and the relative viability (NCI-H2087; first compound 0.04 µM) was 1.12. It also gave a relative viability (NCI-H2087; first compound 0.1265 µM) of 1.02, a relative viability (NCI-H2087; first compound 0.4 µM) of 1.15 and a relative viability (NCI-H2087; first compound 1.265 µM) of 1.09. It also gave a relative viability (NCI-H2087; first compound 4 µM) of 1.12, a relative viability (NCI-H322M; first compound 0.04 µM) of 0.493 and a relative viability (NCI-H322M; first compound 0.1265 µM) of 0.637. For the same molecule, the relative viability (NCI-H322M; first compound 0.4 µM) was 0.509, the relative viability (NCI-H322M; first compound 1.265 µM) was 0.561 and the relative viability (NCI-H322M; first compound 4 µM) was 0.535. It also gave a relative viability (NCI-H358; first compound 0.04 µM) of 0.498, a relative viability (NCI-H358; first compound 0.1265 µM) of 0.429 and a relative viability (NCI-H358; first compound 0.4 µM) of 0.564. For the same molecule, the relative viability (NCI-H358; first compound 1.265 µM) was 0.355, the relative viability (NCI-H358; first compound 4 µM) was 0.457 and the relative viability (NCI-H596; first compound 0.04 µM) was 1.07. It also gave a relative viability (NCI-H596; first compound 0.1265 µM) of 1.22, a relative viability (NCI-H596; first compound 0.4 µM) of 1.14 and a relative viability (NCI-H596; first compound 1.265 µM) of 1.03. The relative viability (NCI-H596; first compound 4 µM) was 1.16, the relative viability (NCI-H650; first compound 0.04 µM) was 0.694 and the relative viability (NCI-H650; first compound 0.1265 µM) was 0.784. It also gave a relative viability (NCI-H650; first compound 1.265 µM) of 0.784, a relative viability (NCI-H650; first compound 4 µM) of 0.911 and a relative viability (NCI-H661; first compound 0.04 µM) of 0.505. For the same molecule, the relative viability (NCI-H661; first compound 0.1265 µM) was 0.384, the relative viability (NCI-H661; first compound 0.4 µM) was 0.518 and the relative viability (NCI-H661; first compound 1.265 µM) was 0.524. It also gave a relative viability (NCI-H661; first compound 4 µM) of 0.496, a relative viability (NCI-H838; first compound 0.04 µM) of 1.06 and a relative viability (NCI-H838; first compound 0.1265 µM) of 0.944. The relative viability (NCI-H838; first compound 0.4 µM) was 1.09, the relative viability (NCI-H838; first compound 1.265 µM) was 0.841 and the relative viability (NCI-H838; first compound 4 µM) was 0.961. It also gave a relative viability (PC-3 [JPC-3]; first compound 0.04 µM) of 0.49, a relative viability (PC-3 [JPC-3]; first compound 0.1265 µM) of 0.461 and a relative viability (PC-3 [JPC-3]; first compound 0.4 µM) of 0.448. The relative viability (PC-3 [JPC-3]; first compound 1.265 µM) was 0.43, the relative viability (PC-3 [JPC-3]; first compound 4 µM) was 0.442 and the relative viability (SK-MES-1; first compound 0.04 µM) was 0.516. The relative viability (SK-MES-1; first compound 0.1265 µM) was 0.457, the relative viability (SK-MES-1; first compound 0.4 µM) was 0.464 and the relative viability (SK-MES-1; first compound 1.265 µM) was 0.462. The relative viability (SK-MES-1; first compound 4 µM) was 0.429, the relative viability (UMC-11; first compound 0.04 µM) was 0.924 and the relative viability (UMC-11; first compound 0.1265 µM) was 0.941. The relative viability (UMC-11; first compound 0.4 µM) was 0.976, the relative viability (UMC-11; first compound 1.265 µM) was 0.975 and the relative viability (UMC-11; first compound 4 µM) was 1.13.
